As a reminder, the GI50 is the concentration giving 50% growth inhibition.

SMILES strings stand for the structures.

The values that follow come from US20190083521A1, “COMBINATION THERAPY FOR TREATING CANCER” (Epizyme, Inc., priority 2014, published 2019).

Experiment [1] has as its system MOLM-13 (MLL-AF9) cells. Nature of the experiment: Example 7 primary screen: 300 nM EPZ-5676 pre-treatment, second compound 72 h, ATPLite, GI100 shift. Type of experiment: cell-based, human. Particulars: MOLM-13 (MLL-AF9); 300 nM EPZ-5676 pre-treatment vs DMSO. The procedure: Cells were split using EPZ-5676 or DMSO containing growth media and further incubated for an additional 3-day pre-treatment time. Cells were finally seeded in growth media containing EPZ-5676 or DMSO in 384-well plates at 500 cell/well density. Cells were then equilibrated in incubators for 24 hours before treatment with a second compound. Treated assay plates were incubated with a second compound for 72 hours. After this time, plates were developed for endpoint analysis using ATPLite to measure ATP content, which is used as an indicator of cell viability.
(§1) “N/D” means the GI100 of the second compound could not be determined for both conditions and “-” means not tested.
(§2) Growth Inhibition (GI) as a measure of cell viability: The cell viability of vehicle was measured at the time of dosing the second agent (T0) and after seventy-two hours (T72). A GI reading of 0% represents no growth inhibition—cells treated with test compound as compared to T72 vehicle signals were measured. […] A GI 200% represents complete death of all cells in the culture well. Compounds reaching an activity plateau of GI 200% are considered cytotoxic. GI is calculated by applying the following test and equation: […]

In experiment [2] the test system is MOLM-13 (MLL-AF9) cells. Nature of the experiment: Combination proliferation assay with Compound A2 (CellTiter-Glo, Chou-Talalay CI). The settings on record: MOLM-13 (MLL-AF9); 7 Day Cotreatment Model. Type of experiment: cell-based, human. The procedure: (§3) The acute myelogenous leukemia cell lines MV4-11 (MLL-AF4) and MOLM-13 (MLL-AF9) were obtained from American Type Culture Collection (ATCC; Rockville, Md.) and Deutsche Sammlung von Mikroorganismen and Zellkulturen (DSMZ; Braunschweig, Germany) respectively.
(§4) Studies were performed using MLL-rearranged cell lines in vitro to evaluate the anti-proliferative effect of a combination of two agents together on cell growth. Initial proliferation studies were performed to determine the IC50 of a given compound in each cell line. The cell counts were measured by ATP quantitation using the Promega Cell Titer Glo kit and luminescence values corresponded to the amount of ATP in a given well.
(§5) Compounds were evaluated for synergy in the co-treatment phase by testing the compounds in a concentration range which was bracketed around their IC50 values. The compounds were plated to a 96 well plate in a matrix format (FIG. 3) which includes increasing concentrations of each drug in the combination in a constant ratio, in addition to the effect of each compound alone in the study. Cells were seeded and grown in the log-linear phase for 3 or 7 days in the co-treatment phase. Minimum inhibition (DMSO alone) controls were used in each plate to calculate fraction affected (Fa) of a test well. DMSO concentration was kept at 0.1% v/v.
(§6) The drug combination analysis was performed utilizing the Chou-Talalay method Synergy was determined using the software package Calcusyn by Biosoft. The combination index (CI) is a quantitative term used to describe the level of synergy or antagonism in a given test system. A combination index less than one indicates synergy, and a CI greater than one indicates antagonism. Further, strong synergism is achieved when the CI value falls below 0.3.
(§7) The HP-D300 digital dispenser (Tecan) was used to dispense compounds in a combinatorial matrix. […] Cell viability was measured via ATP content using CellTiter-Glo® (Promega).
(§8) Viability was determined using CellTiter-Glo® (Promega).
Cell viability was measured via ATP content using CellTiter-Glo® (Promega).
(§9) Proliferation studies were performed using MOLM-13, MV4-11 and SKM-1 cell lines in vitro to evaluate the cancer cell killing effect of a combination of two agents together on cell growth. Initial proliferation studies were performed to determine the IC50 values of a given compound in each cell line. The cell counts were measured by ATP quantitation using the Promega Cell Titer Glo kit and luminescence values correspond to the amount of ATP in a given well.
(§10) These studies were performed to evaluate both the combinatorial effect of compounds on cell killing and the durability of the effect by washing out one of the agents.
(§11) Compounds evaluated for synergy in the co-treatment phase were tested in a range which was bracketed around the IC50's. The compounds were plated to a 96 well plate in a matrix format which includes increasing concentrations of each drug in the combination in a constant ratio, in addition to the effect of each compound alone in the study. Cells were seeded and grown in the log-linear phase for 3 or 7 days in the cotreatment phase. Maximum and minimum inhibition (DMSO alone) controls were used in each plate to calculate fraction affected (Fa) of a test well. DMSO concentration was kept at 0.1% v/v. The drug combination analysis was performed utilizing the Chou-Talalay method. Synergy was determined using the software package Calcusyn by Biosoft. The combination index (CI) is the term used to describe the level of synergy or antagonism in a given test system. A combination index less than one indicates synergy, and a CI greater than one indicates antagonism.
(§12) The drug combination analysis was performed using the Chou-Talalay method. Graphs representing values of combination index (CI) versus Fractional effect (Fa) known as Fa-CI plots were generated and synergy was evaluated.
On the technique in general: ATP-based viability assays read luminescence as a measure of living cells.

Experiment [3] relates to SKM-1 (non-MLL-rearranged AML) cells. The description is as above. The format is cell-based, human. Particulars: SKM-1; Compound A2 concentrations greater than 1000 nM. The procedure: Graphs representing values of combination index (CI) versus Fractional effect (Fa) known as Fa-CI plots were generated and synergy was evaluated.
as §8
MV4-11 cells were maintained in IMDM supplemented with 10% fetal bovine serum. MOLM-13 and SKM-1 cells were maintained in Roswell Park Memorial Institute medium (RPMI) supplemented with 10% fetal bovine serum. They were cultured in flasks or plates in a humidified 5% CO2 atmosphere.
as §9, §11, §12

The subject of a further experiment is MV4-11 (MLL-AF4) cells. Described as above. The settings on record: MV4-11 (MLL-AF4); 7 Day Cotreatment Model. Type of experiment: cell-based, human. The procedure:
as §3, §4, §5, §6, §7, §8, §9, §10, §11
The drug combination analysis was performed using the Chou-Talalay method. Graphs representing values of combination index (CI) versus Fractional effect (Fa) known as Fa-CI plots were generated and synergy was evaluated. Drug synergy was statistically defined by CI values less than 1, antagonism by CI>1 and additive effect by CI equal to 1.

The subject of another experiment is THP-1 (MLL-AF9) cells. Nature of the experiment: Example 7 retest: EPZ-5676 pre-treatment, second compound 72 h, Cell Titer Glo, growth inhibition. Particulars: NRAS G12D. Further details: GI100: unit not given here. The format is cell-based. The procedure:
Cells were split using EPZ-5676 or DMSO containing growth media and further incubated for an additional 3-day pre-treatment time. Cells were finally seeded in growth media containing EPZ-5676 or DMSO in 96-well plates. Cells were then treated with a second compound for 72 hours. After this time, plates were developed for endpoint analysis using Cell Titer Glo to measure ATP content, which is used as an indicator of cell viability.
as §1, §2

In experiment [4] the test system is OCI-AML-4 (MLL-ENL) cells. The experiment is described as above. Type of experiment: cell-based. Particulars: OCI-AML-4 (MLL-ENL); for Combination result with EPZ-5676, Retest: 300 nM EPZ-5676 pre-treatment vs DMSO. The procedure: (§13) Cells were then treated with a second compound for 72 hours. After this time, plates were developed for endpoint analysis using Cell Titer Glo to measure ATP content, which is used as an indicator of cell viability.
as §1
(§14) Growth Inhibition (GI) as a measure of cell viability: The cell viability of vehicle was measured at the time of dosing the second agent (T0) and after seventy-two hours (T72). […] A GI 200% represents complete death of all cells in the culture well. Compounds reaching an activity plateau of GI 200% are considered cytotoxic. GI is calculated by applying the following test and equation: […]

For experiment [5], the system named is MOLM-13 (MLL-AF9) cells. Described as above. Type of experiment: cell-based, human. Further details: GI100: unit not given here. Particulars: MOLM-13 (MLL-AF9); for GI50: Homo sapiens; for GI50 / GI100: second compound, 72 h. The procedure: as §13, §1, §14
Another experiment deals with SKM-1 (non-MLLr) cells. The experiment is described as above. The settings on record: SKM-1 (non-MLLr); for Combination result with EPZ-5676, Retest: 300 nM EPZ-5676 pre-treatment vs DMSO; for Result (combination with EPZ-5676) / GI50 / GI100: KRAS K117N (homo); for GI50 / GI100: second compound, 72 h. Also noted: GI100: unit not given here. The format is cell-based, human. The procedure: as §13, §1, §14

Another experiment has as its system ML-2 (MLL-AF6) cells. The experiment is described as above. The settings on record: ML-2 (MLL-AF6), KRAS A146T (het); for GI50 / GI100: second compound, 72 h. Further details: GI100: unit not given here. Type of experiment: cell-based. The procedure:
as §13, §1, §14

Another experiment has as its system RS4-11 (MLL-AF4) cells. Described as above. Type of experiment: cell-based. Further details: GI100: unit not given here. The settings on record: RS4-11 (MLL-AF4), Ras mutation status: None known, second compound, 72 h; for GI50: Homo sapiens. The procedure:
as §13, §1, §14

[6] abbreviates: NRAS Q61R (het), second compound, 72 h.
[7] abbreviates: Ras mutation status: None known.

`Cn1c(Nc2ccc(C(F)(F)F)cc2)nc2cc(Oc3ccnc(-c4ncc(C(F)(F)F)[nH]4)c3)ccc21` [RAF265]: the “Combination result with EPZ-5676, Primary screen” value in the experiment with MOLM-13 (MLL-AF9) cells [1] is “Synergy (considered synergistic if the GI100 (Growth inhibition 100) value of the second compound decreased by 2-fold or more when EPZ-5676 was added as compared to the DMSO control)”.
In the case of `C[C@]12C=CC(=O)C=C1CC[C@@H]1[C@@H]2[C@@H](O)C[C@@]2(C)[C@H]1CC[C@]2(O)C(=O)CO` [Prednisolone], the “Combination effect with Compound A2 (Table 4)” value in the experiment with MOLM-13 (MLL-AF9) cells [2] and in the experiment on MV4-11 (MLL-AF4) cells was “antagonism” in each case. The “Antiproliferative activity in presence of Compound A2” value in [3] is “enhanced antiproliferative activity”.
As to `CC(C)Nc1cc(-c2c[nH]c(C(=O)N[C@H](CO)c3cccc(Cl)c3)c2)c(Cl)cn1` [Ulixertinib], the GI50 is 0.81 µM with THP-1 (MLL-AF9) cells; 2.1 µM in [4] (setting [6]); 1.67 µM in the experiment on MOLM-13 (MLL-AF9) cells [5] (setting [7]); 0.44 µM in the experiment on SKM-1 (non-MLLr) cells; 0.63 µM with ML-2 (MLL-AF6) cells; above 10 µM in the experiment with RS4-11 (MLL-AF4) cells. The “Combination result with EPZ-5676, Retest” value (in experiment [4]; with MOLM-13 (MLL-AF9) cells [5] (150 nM EPZ-5676 pre-treatment vs DMSO); in the experiment with SKM-1 (non-MLLr) cells) was “Synergy (considered synergistic if the GI100 (Growth inhibition 100) value of the second compound decreased by 2-fold or more when EPZ-5676 was added as compared to the DMSO control)” throughout. Besides, the “Result (combination with EPZ-5676)” value (in experiment [4] (NRAS Q61R (het)); in the experiment on MOLM-13 (MLL-AF9) cells [5] (setting [7]); in the experiment with SKM-1 (non-MLLr) cells; in the experiment on ML-2 (MLL-AF6) cells) was “Synergy (considered synergistic if the GI100 (Growth inhibition 100) value of the second compound decreased by 2-fold or more when EPZ-5676 was added as compared to the DMSO control)” in each case. Moreover, the GI100 with MOLM-13 (MLL-AF9) cells [5] (setting [7]) was 3.96; with SKM-1 (non-MLLr) cells, 1.500; in the experiment on ML-2 (MLL-AF6) cells it was 2.711; with RS4-11 (MLL-AF4) cells it was above 10.
As to `Cn1nccc1Nc1nccc(-c2ccn([C@H](CO)c3ccc(Cl)c(F)c3)c(=O)c2)n1` [GDC0994], the GI50 came to 2.85 µM in the experiment with THP-1 (MLL-AF9) cells; 0.904 µM in experiment [4] (setting [6]); 3.08 µM in the experiment with MOLM-13 (MLL-AF9) cells [5] (setting [7]); 0.27 µM in the experiment on SKM-1 (non-MLLr) cells; 0.59 µM with ML-2 (MLL-AF6) cells; 1.3 µM in the experiment with RS4-11 (MLL-AF4) cells. For the same molecule, the GI100 is above 10 with THP-1 (MLL-AF9) cells; 3.068 in experiment [4] (setting [6]); 4.26 in the experiment with MOLM-13 (MLL-AF9) cells [5] (setting [7]); 1.84 with SKM-1 (non-MLLr) cells; 2.55 in the experiment on ML-2 (MLL-AF6) cells; 2.505 in the experiment with RS4-11 (MLL-AF4) cells. In addition, the “Combination result with EPZ-5676, Retest” value (in experiment [4]; with SKM-1 (non-MLLr) cells) was “Synergy (considered synergistic if the GI100 (Growth inhibition 100) value of the second compound decreased by 2-fold or more when EPZ-5676 was added as compared to the DMSO control)” throughout. Moreover, the “Result (combination with EPZ-5676)” value (in [4] (NRAS Q61R (het)); with SKM-1 (non-MLLr) cells) was “Synergy (considered synergistic if the GI100 (Growth inhibition 100) value of the second compound decreased by 2-fold or more when EPZ-5676 was added as compared to the DMSO control)” throughout.
